This is an account of results in ChEMBL document CHEMBL1124247, “Synthesis and biological evaluation of 8-deazahomofolic acid and its tetrahydro derivative” (J Med Chem, 1988).

Where only a bound is given, the exact number is not on record here.

Test [1] concerns the target Dihydrofolate reductase (Lactobacillus casei, UniProt P00381). Put plainly: Inhibitory activity against dihydrofolate reductase of Lactobacillus casei. On the set-up: species or system Lacticaseibacillus casei.
For test [2], the system named is Lacticaseibacillus casei. Put plainly: Tested for growth inhibition of Lactobacillus casei (MTX resistant). The class given is functional, organism-based.
Test [3] has as its system Lacticaseibacillus casei. The test is described as follows: Tested for growth inhibition of Lactobacillus casei (ATCC […]). It is filed as functional, organism-based.
Test [4] has as its system L1210. The test is described as follows: Tested for growth inhibition of L1210 leukemia cells. To be noted: Mus musculus. It is filed as functional, cell-based.
The test system of test [5] is Enterococcus faecium. The test is described as follows: Tested for growth inhibition of Streptococcus faecium (ATCC 8043). It is filed as functional, organism-based.
Test [6] concerns Enterococcus faecium. The test is described as follows: Tested for growth inhibition of Streptococcus faecium (MTX resistant). It is filed as functional, organism-based.
The target of test [7] is T1, Thymidylate synthase (Lactobacillus casei, UniProt P00469).
T1 sequence (P00469 whole entry): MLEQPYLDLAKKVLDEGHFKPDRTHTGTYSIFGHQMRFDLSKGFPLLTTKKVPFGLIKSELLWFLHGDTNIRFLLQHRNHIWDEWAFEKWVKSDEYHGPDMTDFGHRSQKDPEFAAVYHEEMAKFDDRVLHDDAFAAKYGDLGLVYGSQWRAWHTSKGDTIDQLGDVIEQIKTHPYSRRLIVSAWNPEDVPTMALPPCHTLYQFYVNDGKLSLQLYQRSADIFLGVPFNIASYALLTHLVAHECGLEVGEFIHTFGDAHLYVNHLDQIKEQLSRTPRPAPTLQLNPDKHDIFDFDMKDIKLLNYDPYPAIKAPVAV
The test is described as follows: Inhibitory activity against thymidylate synthase of Lactobacillus casei. Further details: species or system Lacticaseibacillus casei.

In test [8] the target is Thymidylate synthase (Escherichia coli, UniProt C3SWJ7). The test is described as follows: Inhibitory activity against thymidylate synthase of Escherichia coli.
Chain of Thymidylate synthase (Escherichia coli, UniProt C3SWJ7) (C3SWJ7 whole entry): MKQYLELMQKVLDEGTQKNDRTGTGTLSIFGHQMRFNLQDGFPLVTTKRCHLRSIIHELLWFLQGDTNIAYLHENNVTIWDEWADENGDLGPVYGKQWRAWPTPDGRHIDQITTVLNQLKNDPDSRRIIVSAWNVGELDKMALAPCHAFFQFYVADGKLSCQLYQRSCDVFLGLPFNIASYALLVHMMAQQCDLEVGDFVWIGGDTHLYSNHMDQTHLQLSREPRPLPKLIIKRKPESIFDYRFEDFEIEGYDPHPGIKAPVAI

Chain of Dihydrofolate reductase (P00381 whole entry): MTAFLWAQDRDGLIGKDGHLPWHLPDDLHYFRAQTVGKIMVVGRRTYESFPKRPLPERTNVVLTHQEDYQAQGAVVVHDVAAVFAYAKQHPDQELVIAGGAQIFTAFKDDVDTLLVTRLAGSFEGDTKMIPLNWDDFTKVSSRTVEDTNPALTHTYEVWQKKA

With `Nc1nc2c(c(=O)[nH]1)NC(CCNc1ccc(C(=O)NC(CCC(=O)O)C(=O)O)cc1)CC2` (stereo unspecified), the half-maximal inhibitory concentration (IC50) (in general, the midpoint of a concentration-inhibition curve) in test [1] is 230000 nM; in test [2], above 100000 nM; in test [3], 35 nM; in test [4], 35700 nM; in test [5], 15 nM; in test [6] it was above 100000 nM. The compound further gave an IC50 in test [7] of 340000 nM.

As to `Nc1nc(O)c2nc(CCNc3ccc(C(=O)NC(CCC(=O)O)C(=O)O)cc3)cnc2n1` (stereo unspecified), the half-maximal inhibitory concentration (IC50) worked out at 220 nM in test [3] and 2200 nM in test [5].

`Nc1nc(O)c2nc(CNc3ccc(C(=O)NC(CCC(=O)O)C(=O)O)cc3)ccc2n1` (stereo unspecified): the concentration for half-maximal inhibition (IC50) came to 12000 nM in test [1]; 2040 nM in test [2]; 1.4 nM in test [3]; 1330 nM in test [4]; 0.3 nM in test [5]; 294 nM in test [6]. The midpoint of inhibition in test [7], the IC50, lay at 14000 nM.

`Nc1nc(O)c2c(n1)CCC(CNc1ccc(C(=O)NC(CCC(=O)O)C(=O)O)cc1)N2` (stereo unspecified): the IC50 is 55000 nM in test [1]; above 4000 nM in test [2]; 2.7 nM in test [3]; 1.6 nM in test [5]; 1040 nM in test [6]; 75000 nM in test [7].

For the compound `Nc1nc(O)c2nc(CCNc3ccc(C(=O)NC(CCC(=O)O)C(=O)O)cc3)ccc2n1` (stereo unspecified), the IC50 in test [1] is 220000 nM; in test [2], 330 nM; in test [3] it was 19 nM; in test [4], 87000 nM; in test [5], 21 nM; in test [6] it was 1100 nM. The IC50 in test [7] came to 160000 nM.

For the compound `Nc1nc(O)c2c(n1)NCC(CCNc1ccc(C(=O)NC(CCC(=O)O)C(=O)O)cc1)N2` (stereo unspecified), the half-maximal inhibitory concentration (IC50) in test [3] came to 13 nM; in test [5] it was 1.5 nM; in test [8], 2000 nM.

In the case of `CN(Cc1cnc2nc(N)nc(N)c2n1)c1ccc(C(=O)N[C@@H](CCC(=O)O)C(=O)O)cc1` [METHOTREXATE], the concentration for half-maximal inhibition (IC50) in test [3] amounted to 0.05 nM; in test [4] it was 3.9 nM; in test [5], 0.8 nM; in test [6], 8000 nM.
